Assay results taken from patent US20010012893A1, “Acyclovir diester derivatives” (Drug Innovation & Design, Inc., priority 1997, published 2001).
“Also recorded” adds a separate entry of the source.

Columns and labels:
[1] = tested on: pig liver esterase; assay: Incubation with pig liver esterase in phosphate buffered D2O, followed by NMR; assay type: in vitro ADME
From the text: This assay is described in Glazier, WO 91/19721 entitled “Phosphorus Prodrugs” and can be used to determine suitable hydroxyl or amino protecting groups which can be cleaved in vivo. The entire teachings of […] are incorporated herein by reference. It is to be understood that there are other in vitro assays known to one of ordinary skill in the art employing esterases, amidases or enzymes capable of cleaving carbonate, carbamate, ester and amide groups which can also be used to determine suitable protecting groups.

[2] = tested on: HSV-1; assay: Dermal HSV-1 infection in guinea pigs, topical treatment, compared with placebo/vehicle; assay type: in vivo; conditions: guinea pig; for reduction in lesion area (in words) / reduction in lesion number (in words) / reduction in lesion virus titer / skin viral titres (in words): dermal HSV-1, topical, compared to vehicle or to Prodrug 1
Description: The formulation for Prodrug 1 contained 5% EL-620 EMULPHOR (polyoxyethylated castor oil) (Rhone Poluenc), 5% CARBOPOL (Carboxypolymethylene, sodium salt) (B. F. Goodrich), 10% ethanol and 2% by weight Prodrug 1. The balance of the formulation consisted of water.
EL-620 EMULPHOR and water were mixed and ultrasonicated to give a clear emulsion, to which the ethanol was added. The prodrug was then added, and the mixture was ultrasonicated. The sodium carbopol was then added to the emulsion and mixed until to homogeneity.
The placebo was prepared identically to the pharmaceutical compositions except that the prodrugs were omitted.
Female Hartley outbred guinea pigs, 400 to 450 grams, were obtained from Charles River Breeding Labs, Wilmington, Mass. Animals were anesthetized with 25 mg/kg ketamine and 5 mg/kg xylazine SQ. Hair on the dorsum from the shoulders to the rump was removed with electric clippers followed by two 5-10 minute applications of a chemical depilatory. A grid of four areas was demarcated with a pen on both sides of the spine at levels corresponding to mid back and rump.
Undiluted HSV-1 virus stock (0.035 ml) was applied to each different area and introduced through the skin at well-spaced sites at ten activations of a six-pronged spring-loaded vaccination instrument (Sterneedle, Pan Ray Division, Ormont Drug, Englewood, N.J.). The day of inoculation is Day 0. Approximately 250 mg of drug or placebo was applied to the areas according to the dosing regimen on Days 1, 2 and 3. Eight guinea pigs were used during the experiments allowing eight comparisons between each drug and its placebo.
On Day 4 regrown hair on the dorsum of the guinea pigs was removed with one 3-4 minute application of a chemical depilatory. HSV lesions were counted and Polaroid pictures of the animals' backs were taken. The animals were sacrificed using CO2 gas and the full thickness skin of the back was removed by dissection. The square of the skin from each of the four treatment areas was placed into 15 mls of tissue culture medium with 2% FBS in an ice bath. The samples were then homogenized in a stomacher Lab Blender 80 (Tekmar Co.). Debris was pelleted by centrifugation and the supernatants collected and frozen at −70° C. until assay for infectivity by plaque formation in VERO cells.
The mean and standard deviation for number of lesions, total lesion area and lesion virus titer were computed. Paired data (drug/vehicle) were evaluated by the Wilcoxon signed-rank test using percent differences between log10 derivatives of mean lesions severity at drug-treated sites compared to the vehicle-treated sites.
Prodrug 2 was formulated as described in Example 1. One Hartley guinea pig was inoculated with HSV-1 as described in Example 1. The guinea pig was treated with Prodrug 2 according to the protocol used in Example 1 for Prodrug 1.

[3] = tested on: herpes simplex labialis; conditions: cited from earlier work
[4] = dermal HSV-1, topical 2% formulation, Days 1-3, read Day 4, p<0.01

Row | SMILES | degradation products with esterase [1] | reduction in lesion area compared with placebo [2, 4] [%] | reduction in lesion number compared with placebo [2, 4] [%] | reduction in skin viral titres compared with placebo ([2]; dermal HSV-1, topical 2% formulation, Days 1-3, read Day 4, plaque formation in VERO cells, p<0.01) [%] | reduction in lesion area (in words) [2] | reduction in lesion number (in words) [2] | reduction in lesion virus titer / skin viral titres (in words) [2] | effectiveness of oral administration for cold sores ([3]; oral) | response of cold sores to topical treatment ([3]; topical)
1 | COC(=O)CC(OP(=O)([O-])OCCOCn1cnc2c(=O)[nH]c(N)nc21)c1ccc(OC(=O)C(C)(C)C)cc1.[Na+] (stereo not drawn) [Prodrug 1] | degraded to acyclovir monophosphate and p-hydroxycinnamic | 79 | 72 | 93 | dramatic reduction | dramatic reduction | dramatic reduction |  | 
2 | COC(=O)CC(OP(=O)([O-])OCCOCn1cnc2c(=O)[nH]c(N)nc21)c1ccc(OC(C)=O)cc1.[Na+] (stereo not drawn) [Prodrug 2] |  |  |  |  | comparable reduction; also recorded: dramatic reduction | comparable reduction; also recorded: dramatic reduction | comparable reduction; also recorded: dramatic reduction |  | 
3 | Nc1nc2c(ncn2COCCO)c(=O)[nH]1 [acyclovir] |  |  |  |  |  |  |  | only partially effective | do not respond
